From PMC3388080 (PLoS ONE, 2012)
Marks after values point to notes of the source that are not given here.

Tested on: male Sprague-Dawley rats
Test: EEG/EMG/Tcore/LMA telemetry sleep study 3 (almorexant vs ZOL)
Format: in vivo, rat
Conditions: for REM:NR ratio: 6 h after dosing
Procedure: All rodent electroencephalograph (EEG) studies were performed at SRI International. Three groups of eight male Sprague-Dawley rats (300±25 g; Charles River, Wilmington, MA) were implanted with chronic recording devices (F40-EET, Data Sciences Inc., St Paul, MN) for continuous recordings of EEG, electromyograph (EMG), core body temperature (Tcore), and LMA via telemetry as previously described. Data recording and scoring were performed as previously reported (see also Supplemental Material and Methods). The EEG and EMG data were scored in 10 sec epochs for waking (W), rapid eye movement sleep (REM), and non-REM sleep (NR). Tcore and LMA (counts per minute) were analyzed as hourly means. Data from the EEG studies are reported in hourly means such that the hourly time ZT1 refers to the hour between time points ZT0 and ZT1.
For each of the three separate studies, a repeated measures counter-balanced design was employed in which each rat received five separate dosings. […] All dosings were administered ip in a volume of 2 ml/kg. A minimum of 3 d elapsed between doses. Dosing occurred during the middle of the rats’ normal active period at the start of ZT19 and was typically completed within 10 min. Animals were continuously recorded for 6 h prior to dosing and for 18 h following dosing.

[1] = 6 h Average, almorexant 10 mg/kg ip
[2] = 6 h Total, almorexant 10 mg/kg ip

Structure (SMILES): CNC(=O)[C@@H](c1ccccc1)N1CCc2cc(OC)c(OC)cc2[C@@H]1CCc1ccc(C(F)(F)F)cc1 [almorexant, (2R)-2-[(1S)-6,7-Dimethoxy-1-[2-(4-trifluoromethyl-phenyl)-ethyl]-3,4-dihydro-1H-isoquinolin-2-yl]-N-methyl-2-phenyl-acetamide]
- cumulative REM (in words) (30 mg/kg ip, first 2 h): Cumulative REM also increased
- cumulative REM (in words) (100 mg/kg ip, 6 h period): Cumulative REM also increased
- numbers of W and NR bouts (in words) (100 mg/kg ip, ZT19, ZT20, ZT22-ZT24): increased numbers of W and NR bouts
- W bout duration (in words) (100 mg/kg ip, ZT22, vs vehicle): decreased
- number of REM bouts (in words) (100 mg/kg ip, ZT22-ZT24): increased
- LMA (in words) (100 mg/kg ip, across 6 h, vs vehicle): LMA was decreased
- NR latency (in words) (30 and 100 mg/kg ip at ZT19, vs vehicle): reduced NR latency
- cumulative NR (in words) (30 and 100 mg/kg ip, 2, 4 and 6 h): increased cumulative NR
- NR bout duration (6 h Average, 30 mg/kg ip): 1.25 ±0.09^+
- REM bout duration (6 h Average, 30 mg/kg ip): 1.32 ± 0.10
- W bout duration (6 h Average, 30 mg/kg ip): 2.53 ± 0.41
- NR bout duration (6 h Average, 100 mg/kg ip): 1.20 ± 0.08^+
- REM bout duration (6 h Average, 100 mg/kg ip): 1.20 ± 0.12
- W bout duration (6 h Average, 100 mg/kg ip): 1.59 ± 0.20*^+
- NR bout duration [1]: 1.22 ± 0.08^+
- REM bout duration [1]: 1.11 ± 0.13
- W bout duration [1]: 4.37 ± 1.09
- Number of NR bouts (6 h Total, 30 mg/kg ip): 103.0 ± 9.60*^+
- Number of REM bouts (6 h Total, 30 mg/kg ip): 20.38 ± 3.12^+
- Number of NR bouts (6 h Total, 100 mg/kg ip): 127.0 ± 6.02*^+
- Number of REM bouts (6 h Total, 100 mg/kg ip): 27.75 ± 3.26*^+
- Number of W bouts (6 h Total, 100 mg/kg ip): 109.38 ±7.91*^+
- Number of NR bouts [2]: 82.00 ±9.10
- Number of REM bouts [2]: 18.00 ± 3.80^+
- Number of W bouts [2]: 67.50 ± 8.89
- REM:NR ratio (10 mg/kg ip (almorexant)): 0.19±0.026^+
- REM:NR ratio (30 mg/kg ip): 0.20±0.022^+
- REM:NR ratio (100 mg/kg ip): 0.21±0.021^+
- NR during the subsequent light period (in words) (ZT1 and ZT6, 30 mg/kg ip, vs vehicle): NR increased
- NR bout duration (ZT19, 30 mg/kg ip): 1.33 ± 0.14^+
- Number of NR bouts (ZT19, 30 mg/kg ip): 15.00 ± 1.83
- Number of REM bouts (ZT19, 30 mg/kg ip): 2.63 ± 0.50*^+
- Number of W bouts (ZT19, 30 mg/kg ip): 10.38 ± 1.53
- REM bout duration (ZT19, 30 mg/kg ip): 1.52 ± 0.26*^+
- W bout duration (ZT19, 30 mg/kg ip): 4.69 ± 1.87
- NR bout duration (ZT19, 100 mg/kg ip): 1.50 ± 0.14*^+
- Number of NR bouts (ZT19, 100 mg/kg ip): 14.00 ± 1.25
- Number of REM bouts (ZT19, 100 mg/kg ip): 1.25 ± 0.49
- Number of W bouts (ZT19, 100 mg/kg ip): 12.25 ± 1.74
- REM bout duration (ZT19, 100 mg/kg ip): 1.44 ± 0.38*^+
- W bout duration (ZT19, 100 mg/kg ip): 3.31 ± 0.65
- NR bout duration (ZT19, almorexant 10 mg/kg ip): 1.27 ± 0.15^+
- Number of NR bouts (ZT19, almorexant 10 mg/kg ip): 8.63 ± 1.82
- Number of REM bouts (ZT19, almorexant 10 mg/kg ip): 1.75 ± 0.53
- Number of W bouts (ZT19, almorexant 10 mg/kg ip): 6.63 ± 1.50
- REM bout duration (ZT19, almorexant 10 mg/kg ip): 0.76 ± 0.19*^+
- W bout duration (ZT19, almorexant 10 mg/kg ip): 9.90 ± 3.21
- NR bout duration (ZT20, 30 mg/kg ip): 1.34 ± 0.08^+
- Number of NR bouts (ZT20, 30 mg/kg ip): 19.75 ± 2.25
- Number of REM bouts (ZT20, 30 mg/kg ip): 4.38 ± 1.08^+
- Number of W bouts (ZT20, 30 mg/kg ip): 16.38 ± 1.68^+
- REM bout duration (ZT20, 30 mg/kg ip): 1.37 ± 0.05^+
- W bout duration (ZT20, 30 mg/kg ip): 1.96 ± 0.75
- NR bout duration (ZT20, 100 mg/kg ip): 1.37 ± 0.12^+
- Number of NR bouts (ZT20, 100 mg/kg ip): 22.25 ± 2.36
- Number of REM bouts (ZT20, 100 mg/kg ip): 3.00 ± 1.20
- Number of W bouts (ZT20, 100 mg/kg ip): 18.38 ± 1.40*^+
- REM bout duration (ZT20, 100 mg/kg ip): 1.08 ± 0.15^+
- W bout duration (ZT20, 100 mg/kg ip): 1.41 ± 0.13^+
- NR bout duration (ZT20, almorexant 10 mg/kg ip): 1.31 ± 0.09^+
- Number of NR bouts (ZT20, almorexant 10 mg/kg ip): 19.38 ± 2.38
- Number of REM bouts (ZT20, almorexant 10 mg/kg ip): 4.13 ± 0.97^+
- Number of W bouts (ZT20, almorexant 10 mg/kg ip): 14.88 ± 2.05^+
- REM bout duration (ZT20, almorexant 10 mg/kg ip): 1.16 ± 0.17^+
- W bout duration (ZT20, almorexant 10 mg/kg ip): 2.37 ± 0.70
- NR bout duration (ZT21, 30 mg/kg ip): 1.27 ± 0.09^+
- Number of NR bouts (ZT21, 30 mg/kg ip): 20.75 ± 1.39
- Number of REM bouts (ZT21, 30 mg/kg ip): 5.25 ± 1.16^+
- Number of W bouts (ZT21, 30 mg/kg ip): 18.38 ± 1.39^+
- REM bout duration (ZT21, 30 mg/kg ip): 1.26 ± 0.14
- W bout duration (ZT21, 30 mg/kg ip): 1.43 ± 0.30^+
- NR bout duration (ZT21, 100 mg/kg ip): 1.31 ± 0.15^+
- Number of NR bouts (ZT21, 100 mg/kg ip): 23.75 ± 1.47
- Number of REM bouts (ZT21, 100 mg/kg ip): 6.75 ± 1.06^+
- Number of W bouts (ZT21, 100 mg/kg ip): 20.88 ± 2.21^+
- REM bout duration (ZT21, 100 mg/kg ip): 1.28 ± 0.18
- W bout duration (ZT21, 100 mg/kg ip): 0.93 ± 0.15^+
- NR bout duration (ZT21, almorexant 10 mg/kg ip): 1.17 ± 0.16^+
- Number of NR bouts (ZT21, almorexant 10 mg/kg ip): 15.88 ± 2.00
- Number of REM bouts (ZT21, almorexant 10 mg/kg ip): 4.75 ± 1.13^+
- Number of W bouts (ZT21, almorexant 10 mg/kg ip): 13.50 ± 1.73
- REM bout duration (ZT21, almorexant 10 mg/kg ip): 1.40 ± 0.16
- W bout duration (ZT21, almorexant 10 mg/kg ip): 3.03 ± 0.90
- NR bout duration (ZT22, 30 mg/kg ip): 1.04 ± 0.11^+
- Number of NR bouts (ZT22, 30 mg/kg ip): 17.25 ± 2.58
- Number of REM bouts (ZT22, 30 mg/kg ip): 2.88 ± 0.74
- Number of W bouts (ZT22, 30 mg/kg ip): 14.88 ± 1.99
- REM bout duration (ZT22, 30 mg/kg ip): 1.26 ± 0.17
- W bout duration (ZT22, 30 mg/kg ip): 3.07 ± 0.83
- NR bout duration (ZT22, 100 mg/kg ip): 1.12 ± 0.15
- Number of NR bouts (ZT22, 100 mg/kg ip): 23.88 ± 1.34
- Number of REM bouts (ZT22, 100 mg/kg ip): 7.38 ± 1.49*^+
- Number of W bouts (ZT22, 100 mg/kg ip): 20.00 ± 0.89*^+
- REM bout duration (ZT22, 100 mg/kg ip): 1.07 ± 0.18
- W bout duration (ZT22, 100 mg/kg ip): 1.13 ± 0.15^+
- NR bout duration (ZT22, almorexant 10 mg/kg ip): 1.07 ± 0.19^+
- Number of NR bouts (ZT22, almorexant 10 mg/kg ip): 14.38 ± 2.58
- Number of REM bouts (ZT22, almorexant 10 mg/kg ip): 2.88 ± 0.81
- Number of W bouts (ZT22, almorexant 10 mg/kg ip): 13.00 ± 2.92
- REM bout duration (ZT22, almorexant 10 mg/kg ip): 1.05 ± 0.36
- W bout duration (ZT22, almorexant 10 mg/kg ip): 4.74 ± 1.57
- NR bout duration (ZT23, 30 mg/kg ip): 1.03 ± 0.12
- Number of NR bouts (ZT23, 30 mg/kg ip): 16.63 ± 2.88
- Number of REM bouts (ZT23, 30 mg/kg ip): 2.88 ± 0.93
- Number of W bouts (ZT23, 30 mg/kg ip): 15.13 ± 2.71
- REM bout duration (ZT23, 30 mg/kg ip): 0.91 ± 0.19
- W bout duration (ZT23, 30 mg/kg ip): 5.53 ± 3.36
- NR bout duration (ZT23, 100 mg/kg ip): 0.90 ± 0.07
- Number of NR bouts (ZT23, 100 mg/kg ip): 23.13 ± 2.61
- Number of REM bouts (ZT23, 100 mg/kg ip): 4.00 ± 0.82
- Number of W bouts (ZT23, 100 mg/kg ip): 21.00 ± 3.02
- REM bout duration (ZT23, 100 mg/kg ip): 1.16 ± 0.12
- W bout duration (ZT23, 100 mg/kg ip): 2.15 ± 0.68
- NR bout duration (ZT23, almorexant 10 mg/kg ip): 1.11 ± 0.19
- Number of NR bouts (ZT23, almorexant 10 mg/kg ip): 8.00 ± 1.68
- Number of REM bouts (ZT23, almorexant 10 mg/kg ip): 1.25 ± 0.65
- Number of W bouts (ZT23, almorexant 10 mg/kg ip): 6.63 ± 1.88
- REM bout duration (ZT23, almorexant 10 mg/kg ip): 0.61 ± 0.17
- W bout duration (ZT23, almorexant 10 mg/kg ip): 12.59 ± 3.87
- NR bout duration (ZT24, 30 mg/kg ip): 1.50 ± 0.24
- Number of NR bouts (ZT24, 30 mg/kg ip): 19.88 ± 2.63
- Number of REM bouts (ZT24, 30 mg/kg ip): 2.38 ± 0.98
- Number of W bouts (ZT24, 30 mg/kg ip): 12.00 ± 2.70
- REM bout duration (ZT24, 30 mg/kg ip): 0.98 ± 0.15
- W bout duration (ZT24, 30 mg/kg ip): 4.32 ± 1.06
- NR bout duration (ZT24, 100 mg/kg ip): 1.14 ± 0.08
- Number of NR bouts (ZT24, 100 mg/kg ip): 19.88 ± 1.14
- Number of REM bouts (ZT24, 100 mg/kg ip): 5.25 ± 1.08*^+
- Number of W bouts (ZT24, 100 mg/kg ip): 15.88 ± 1.14
- REM bout duration (ZT24, 100 mg/kg ip): 1.16 ± 0.14^+
- W bout duration (ZT24, 100 mg/kg ip): 1.92 ± 0.34
- NR bout duration (ZT24, almorexant 10 mg/kg ip): 1.14 ± 0.14
- Number of NR bouts (ZT24, almorexant 10 mg/kg ip): 15.25 ± 2.30
- Number of REM bouts (ZT24, almorexant 10 mg/kg ip): 3.25 ± 0.94
- Number of W bouts (ZT24, almorexant 10 mg/kg ip): 12.00 ± 2.10
- REM bout duration (ZT24, almorexant 10 mg/kg ip): 1.02 ± 0.21^+
- W bout duration (ZT24, almorexant 10 mg/kg ip): 4.00 ± 1.17
- REM bout duration (in words) (first hour after treatment): significantly increased REM bout duration
- Tcore (in words) (high concentration tested, across 6 h): decreased Tcore
- REM bouts compared to vehicle (highest dose (100 mg/kg), latter half of the dark period): 2 to 3 fold
- latency to REM sleep (in words) (only 30 mg/kg ip at ZT19, vs vehicle): decreased latency to REM sleep
